Results as given in patent publication US20250129070A1, “BIFUNCTIONAL ANDROGEN RECEPTOR COMPOUNDS” (priority 2023, published 2025).

Tests used:
AR / CBP ternary complex = experiment: Ternary complex formation assay (sandwich ELISA, AR capture / CBP detection) in VCaP cell lysates; type: cell-based; conditions: 1.5 hours treatment, sandwich ELISA (AR capture, CBP or p300 detection)
Outline: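 Anti-AR (AR 441)-coated plates capture AR from lysates of VCaP cells grown ≥3 days at 50K/well in 5% charcoal-stripped FBS, dosed with bifunctional for 1.5 h and lysed 30 min at 4 °C. Co-captured CBP/p300 is probed with rabbit mAb and HRP anti-rabbit, then QuantaRed fluorescence (570/585) is read at 0, 5 and 15 min.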

VCaP cells = experiment: VCaP growth inhibition assay; type: cell-based; conditions: 30 pM R1881, 9 days, CTG
Outline: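 Growth read by CTG luminescence after 9-day exposure to compound (final 100 nM–10 fM, 1:5 steps) plus 30 pM R1881, in phenol red-free DMEM with 5% CSS. Cells pre-incubated 72 h before dosing; IC50 by nonlinear 4-parameter regression.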

| SMILES | EC50 (AR / CBP ternary complex) [nM] | IC50 (VCaP cells) [nM] |
| --- | --- | --- |
| CC(=O)N1CCc2c(c(N3CCCc4cc(-c5cnn(C)c5)c(C(F)F)cc43)nn2C2CCN(CCOc3ncc(C(=O)NC4C(C)(C)C(Oc5ccc(C#N)c(Cl)c5)C4(C)C)cn3)CC2)C1 (stereo not drawn) [Compound 89, 2-[2-[4-[5-acetyl-3-[7-(difluoromethyl)-6-(1-methylpyrazol-4-yl)-3,4-dihydro-2H-quinolin-1-yl]-6,7-dihydro-4H-pyrazolo[4,3-c]pyridin-1-yl]-1-piperidyl]ethoxy]-N-[3-(3-chloro-4-cyano-phenoxy)-2,2,4,4-tetramethyl-cyclobutyl]pyrimidine-5-carboxamide] | < 1 | 0.1 to 1 |
| COc1cc(OC2C(C)(C)C(NC(=O)c3ccc(N4CCC(CCc5ccc(-c6cc7c(cc6C(F)F)N(c6nn(C8CCOCC8)c8c6CN(C(C)=O)CC8)CCC7)cn5)CC4)cc3)C2(C)C)ccc1C#N (stereo not drawn) [Compound 247, 4-[4-[2-[5-[1-(5-acetyl-1-tetrahydropyran-4-yl-6,7-dihydro-4H-pyrazolo[4,3-c]pyridin-3-yl)-7-(difluoromethyl)-3,4-dihydro-2H-quinolin-6-yl]-2-pyridyl]ethyl]-1-piperidyl]-N-[3-(4-cyano-3-methoxy-phenoxy)-2,2,4,4-tetramethyl-cyclobutyl]benzamide] | < 1 | 0.1 to 1 |
| C[C@@H]1CC(=O)Nc2cccc(-c3ccc4c(c3)c(-c3cnn(C)c3)nn4CCCN(C)c3ncc(C(=O)NC4C(C)(C)C(Oc5ccc(C#N)c(Cl)c5)C4(C)C)cn3)c2N1 (stereo partly drawn) [Compound 50, N-[3-(3-chloro-4-cyano-phenoxy)-2,2,4,4-tetramethyl-cyclobutyl]-2-[methyl-[3-[5-[(4R)-4-methyl-2-oxo-1,3,4,5-tetrahydro-1,5-benzodiazepin-6-yl]-3-(1-methylpyrazol-4-yl)indazol-1-yl]propyl]amino]pyrimidine-5-carboxamide] | < 1 | 0.1 to 1 |
| COc1cc(OC2C(C)(C)C(NC(=O)c3ccc(N4CCC(n5ncc6c5CCC(n5nc(N7CCCc8cc(-c9cnn(C)c9)c(C(F)F)cc87)c7c5CCN(C(C)=O)C7)C6)CC4)cc3)C2(C)C)ccc1C#N (stereo not drawn) [Compound 265, 4-[4-[5-[5-acetyl-3-[7-(difluoromethyl)-6-(1-methylpyrazol-4-yl)-3,4-dihydro-2H-quinolin-1-yl]-6,7-dihydro-4H-pyrazolo[4,3-c]pyridin-1-yl]-4,5,6,7-tetrahydroindazol-1-yl]-1-piperidyl]-N-[3-(4-cyano-3-methoxy-phenoxy)-2,2,4,4-tetramethyl-cyclobutyl]benzamide] | < 1 | ≤ 0.1 |
| CC(=O)N1CCc2c(c(N3CCCc4cc(-c5cnn(C)c5)c(C(F)F)cc43)nn2C2CCN(CC3CCN(c4ccc5c(n4)CN(C4C(C)(C)C(Oc6ccc(C#N)c(Cl)c6)C4(C)C)C5=O)CC3)CC2)C1 (stereo not drawn) [Compound 296, 4-[3-[2-[4-[[4-[5-acetyl-3-[7-(difluoromethyl)-6-(1-methylpyrazol-4-yl)-3,4-dihydro-2H-quinolin-1-yl]-6,7-dihydro-4H-pyrazolo[4,3-c]pyridin-1-yl]-1-piperidyl]methyl]-1-piperidyl]-5-oxo-7H-pyrrolo[3,4-b]pyridin-6-yl]-2,2,4,4-tetramethyl-cyclobutoxy]-2-chloro-benzonitrile] | < 1 | 0.1 to 1 |
| COc1cc(OC2C(C)(C)C(NC(=O)c3ccc(N4CCC(C(=O)N5CCC(n6nc(N7CCCc8cc(-c9cnn(C)c9)c(C(F)F)cc87)c7c6CCN(C(C)=O)C7)CC5)CC4)cc3)C2(C)C)ccc1C#N (stereo not drawn) [Compound 252, 4-[4-[4-[5-acetyl-3-[7-(difluoromethyl)-6-(1-methylpyrazol-4-yl)-3,4-dihydro-2H-quinolin-1-yl]-6,7-dihydro-4H-pyrazolo[4,3-c]pyridin-1-yl]piperidine-1-carbonyl]-1-piperidyl]-N-[3-(4-cyano-3-methoxy-phenoxy)-2,2,4,4-tetramethyl-cyclobutyl]benzamide] | < 1 | 0.1 to 1 |
| CC(=O)N1CCc2c(c(N3CCCc4cc(-c5cnn(C)c5)c(C(F)F)cc43)nn2C2CCN(CC3CCN(c4ncc(C(=O)NC5C(C)(C)C(Oc6ccc(C#N)c(Cl)c6)C5(C)C)nn4)CC3)CC2)C1 (stereo not drawn) [Compound 152] | > 100 | ≤ 0.1 |
| CC(=O)N1CCc2c(c(N3CCCc4cc(-c5cnn(C)c5)c(C(F)F)cc43)nn2C2CCN([C@H]3CCN(c4ncc(C(=O)NC5C(C)(C)C(Oc6ccc(C#N)c(Cl)c6)C5(C)C)cn4)C3)CC2)C1 (stereo partly drawn) [Compound 334, 2-[(3S)-3-[4-[5-acetyl-3-[7-(difluoromethyl)-6-(1-methylpyrazol-4-yl)-3,4-dihydro-2H-quinolin-1-yl]-6,7-dihydro-4H-pyrazolo[4,3-c]pyridin-1-yl]-1-piperidyl]pyrrolidin-1-yl]-N-[3-(3-chloro-4-cyano-phenoxy)-2,2,4,4-tetramethyl-cyclobutyl]pyrimidine-5-carboxamide] | < 1 | 0.1 to 1 |
| COc1cc(OC2C(C)(C)C(NC(=O)c3ccc(N4CCC5(CCC(n6nc(N7CCCc8cc(-c9cnn(C)c9)c(C(F)F)cc87)c7c6CCN(C(C)=O)C7)CC5)C4)cc3)C2(C)C)ccc1C#N (stereo not drawn) [Compound 406, 4-[8-[5-acetyl-3-[7-(difluoromethyl)-6-(1-methylpyrazol-4-yl)-3,4-dihydro-2H-quinolin-1-yl]-6,7-dihydro-4H-pyrazolo[4,3-c]pyridin-1-yl]-2-azaspiro[4.5]decan-2-yl]-N-[3-(4-cyano-3-methoxy-phenoxy)-2,2,4,4-tetramethyl-cyclobutyl]benzamide] | 1 to 10 | 1 to 100 |
| COC1CN(c2ncc(C(=O)NC3C(C)(C)C(Oc4ccc(C#N)c(Cl)c4)C3(C)C)cn2)CCC1CN1CCC(n2nc(N3CCCc4cc(-c5cnn(C)c5)c(C(F)F)cc43)c3c2CCN(C(C)=O)C3)CC1 (stereo not drawn) [Compound 329, 2-[4-[[4-[5-acetyl-3-[7-(difluoromethyl)-6-(1-methylpyrazol-4-yl)-3,4-dihydro-2H-quinolin-1-yl]-6,7-dihydro-4H-pyrazolo[4,3-c]pyridin-1-yl]-1-piperidyl]methyl]-3-methoxy-1-piperidyl]-N-[3-(3-chloro-4-cyano-phenoxy)-2,2,4,4-tetramethyl-cyclobutyl]pyrimidine-5-carboxamide] | < 1 | ≤ 0.1 |
| COc1cc(OC2C(C)(C)C(NC(=O)c3ccc(N4CCN(C5CN(c6ccc(-c7cc8cccc(-c9nn(C%10CCOCC%10)c%10c9CN(C(C)=O)CC%10)c8cn7)cn6)C5)CC4)cc3)C2(C)C)ccc1C#N (stereo not drawn) [Compound 322, 4-[4-[1-[5-[8-(5-acetyl-1-tetrahydropyran-4-yl-6,7-dihydro-4H-pyrazolo[4,3-c]pyridin-3-yl)-3-isoquinolyl]-2-pyridyl]azetidin-3-yl]piperazin-1-yl]-N-[3-(4-cyano-3-methoxy-phenoxy)-2,2,4,4-tetramethyl-cyclobutyl]benzamide] | < 1 | ≤ 0.1 |
| CC(=O)N1CCc2c(c(N3CCCc4cc(-c5cnn(C)c5)c(C(F)F)cc43)nn2C2CCN(CC#CCCc3ncc(C(=O)NC4C(C)(C)C(Oc5ccc(C#N)c(Cl)c5)C4(C)C)cn3)CC2)C1 (stereo not drawn) [Compound 18, 2-[5-[4-[5-acetyl-3-[7-(difluoromethyl)-6-(1-methylpyrazol-4-yl)-3,4-dihydro-2H-quinolin-1-yl]-6,7-dihydro-4H-pyrazolo[4,3-c]pyridin-1-yl]-1-piperidyl]pent-3-ynyl]-N-[3-(3-chloro-4-cyano-phenoxy)-2,2,4,4-tetramethyl-cyclobutyl]pyrimidine-5-carboxamide] | < 1 | 0.1 to 1 |
| COc1cc(OC2C(C)(C)C(NC(=O)c3cnc(N4CCC(CN5CCC(n6nc(N7CCCc8cc(-c9cnn(C)c9)c(C(F)F)cc87)c7c6CCN(C(C)=O)C7)CC5)C5(CC5)C4)nc3)C2(C)C)ccc1C#N (stereo not drawn) [Compound 362, 2-[8-[[4-[5-acetyl-3-[7-(difluoromethyl)-6-(1-methylpyrazol-4-yl)-3,4-dihydro-2H-quinolin-1-yl]-6,7-dihydro-4H-pyrazolo[4,3-c]pyridin-1-yl]-1-piperidyl]methyl]-5-azaspiro[2.5]octan-5-yl]-N-[3-(4-cyano-3-methoxy-phenoxy)-2,2,4,4-tetramethyl-cyclobutyl]pyrimidine-5-carboxamide] | < 1 | ≤ 0.1 |
| COc1cc(OC2C(C)(C)C(NC(=O)c3ccc(N4CCC(C(=O)N5CCC(n6nc(-c7cccc8cc(C9CC9)c(C(F)F)cc78)c7c6CCN(C(C)=O)C7)CC5)CC4)cc3)C2(C)C)ccc1C#N (stereo not drawn) [Compound 257, 4-[4-[4-[5-acetyl-3-[6-cyclopropyl-7-(difluoromethyl)-1-naphthyl]-6,7-dihydro-4H-pyrazolo[4,3-c]pyridin-1-yl]piperidine-1-carbonyl]-1-piperidyl]-N-[3-(4-cyano-3-methoxy-phenoxy)-2,2,4,4-tetramethyl-cyclobutyl]benzamide] | < 1 | 0.1 to 1 |
| CC(=O)N1CCc2c(c(N3CCCc4cc(-c5cnn(C)c5)c(C)cc43)nn2C2CCN(C3CCC4(CC3)CN(c3ncc(C(=O)NC5C(C)(C)C(Oc6ccc(C#N)c(Cl)c6)C5(C)C)cn3)C4)CC2)C1 (stereo not drawn) [Compound 468, 2-[7-[4-[5-acetyl-3-[7-methyl-6-(1-methylpyrazol-4-yl)-3,4-dihydro-2H-quinolin-1-yl]-6,7-dihydro-4H-pyrazolo[4,3-c]pyridin-1-yl]-1-piperidyl]-2-azaspiro[3.5]nonan-2-yl]-N-[3-(3-chloro-4-cyano-phenoxy)-2,2,4,4-tetramethyl-cyclobutyl]pyrimidine-5-carboxamide] | < 1 | 0.1 to 1 |
